Consider one compound from patent publication US11529353B2, “Pharmaceutical composition comprising Palbociclib” (Synthon B.V., priority 2017, dated 2022).

The conditions of data set [1]: cited from earlier work.
Data set [2] is described as follows: Specific surface area by BET-nitrogen adsorption analysis. It is filed as physicochemical. On the procedure: The specific surface area (SSA) is assessed with a Quantachrome NOVA touch 2LX. The N2 is used as measuring gas and BET method is used to evaluate SSA. The following setup has been used for the measurement: • Adsorbate: Nitrogen • Sample cell: 9 mm large bulb cell, long; Measurement is performed with the corresponding filler rod • Sample masses*: approximately ¾ of cell bulb • Degassing conditions: 960 min at 30° C. under vacuum (ramping 10° C./min) • Measured points of isotherm: 11 equidistant points in the range 0.05-0.30 p/p0** • Points analyzed using BET: 7equidistant points from whole range 0.05-0.20 p/p0 • Use data reduction adsorbate model: Yes (N2) • Bath thermal delay: at least 600 s • P0 Option: continuous (measured each 30 minutes) • Void volume mode: Helium measure • Equilibration time: 160 s • Equilibration timeout: 2400 s • Tolerance: 0.05 • * Used amount of sample depends on its SSA and other physical parameters. The real surface area of sample in measuring cell should be between 1 m^2/g and 20 m^2/g. • ** Points above or below this range can be measured.

Data set [3] in a line: Particle size distribution by LASER diffraction (Malvern Mastersizer 2000). It is filed as physicochemical. Here is the method:
The particle size distribution (PSD) is determined with LASER diffraction analyzer Malvern Mastersizer 2000 which operates in size ranges from 0.02 μm to 2,000 μm. The wet dispersion is prepared from dry powder sample and added to the dispersion unit. Gained raw data are computed by software to PSD with the use of Mie theory. This method is based on Ph. Eur. Method 2.9.31 and USP <429>.

Consider `CC(=O)c1c(C)c2cnc(Nc3ccc(N4CCNCC4)cn3)nc2n(C2CCCC2)c1=O` [Palbociclib], for which the solubility result in data set [1] (above pH 4) is on record as “reduces significantly”. For the same compound, the solubility in water entry in data set [1] (at or below pH 4) was “high-solubility compound”. The same compound yielded a surface area in data set [2] of 6.9 m^2/g. In data set [3], this compound displayed a D90 of 11.5 μm.
